Reference: ChEMBL document CHEMBL1142388, “Carbonic anhydrase activators: activation of the human tumor-associated isozymes IX and XII with amino acids and amines” (Bioorg Med Chem, 2008)

Legend:
[1] = biological target: Carbonic anhydrase 9 (Homo sapiens) (UniProt Q16790); test: Activation of human recombinant CA9 catalytic domain by stopped-flow CO2 hydration method
[2] = biological target: Carbonic anhydrase 12 (Homo sapiens) (UniProt O43570); test: Activation of human recombinant CA12 catalytic domain by stopped-flow CO2 hydration method
Chain of Carbonic anhydrase 12 (Homo sapiens) (O43570 whole entry, the tested form may be a part): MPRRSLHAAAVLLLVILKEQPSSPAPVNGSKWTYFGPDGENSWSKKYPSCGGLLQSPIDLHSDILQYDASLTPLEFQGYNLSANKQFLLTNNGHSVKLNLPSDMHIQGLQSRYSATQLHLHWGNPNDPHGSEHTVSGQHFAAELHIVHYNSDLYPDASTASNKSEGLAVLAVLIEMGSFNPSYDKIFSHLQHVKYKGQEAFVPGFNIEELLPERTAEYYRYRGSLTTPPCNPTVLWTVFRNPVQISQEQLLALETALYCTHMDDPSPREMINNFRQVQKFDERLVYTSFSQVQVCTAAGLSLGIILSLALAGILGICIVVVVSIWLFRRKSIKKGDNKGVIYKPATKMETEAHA

SMILES | KA [1] | KA [2]
N[C@@H](Cc1c[nH]c2ccccc12)C(=O)O | 37.5 µM | 26 µM
CNCC(O)c1ccc(O)c(O)c1 (single isomer, unassigned) | 0.87 µM | 0.41 µM
NCCc1c[nH]c2ccc(O)cc12 | 33.1 µM | 0.3 µM
NCCc1ccccn1 | 0.013 µM | 0.69 µM
N[C@@H](Cc1ccc(O)cc1)C(=O)O | 25.3 µM | 25.8 µM
NCCN1CCOCC1 | 0.43 µM | 0.24 µM
NCc1ccccn1 | 1.07 µM | 41.5 µM
N[C@H](Cc1ccc(O)c(O)c1)C(=O)O | 54.7 µM | 0.89 µM
N[C@H](Cc1c[nH]c2ccccc12)C(=O)O | 43.6 µM | 28.1 µM
Nc1ccc(C[C@H](N)C(=O)O)cc1 | 48.7 µM | 1.09 µM
NCCc1c[nH]cn1 | 35.1 µM | 27.9 µM
N[C@@H](Cc1ccc(O)c(O)c1)C(=O)O | 51.3 µM | 1.67 µM
NCCN1CCNCC1 | 0.009 µM | 48.3 µM
N[C@H](Cc1c[nH]cn1)C(=O)O | 12.5 µM | 24.7 µM
NCCc1ccc(O)c(O)c1 | 0.92 µM | 0.67 µM
N[C@@H](Cc1c[nH]cn1)C(=O)O | 9.71 µM | 37.5 µM
